According to the CheMixHub viscosity set:
Values joined by “and” are separate entries in the source; they are usually repeats but may differ in a detail not shown here. Identical values can stand only once.

Assay: xn = mol fraction of the nth substance listed

CC(C)(C)O + O
Settings	viscosity
298.15 K, 100 kPa, x1 = 0.1	3.149 mPa·s
298.15 K, 100 kPa, x1 = 0.25	4.729 mPa·s
298.15 K, 100 kPa, x1 = 0.3	4.782 mPa·s
298.15 K, 100 kPa, x1 = 0.4	4.889 mPa·s
298.15 K, 100 kPa, x1 = 0.5	4.646 mPa·s
298.15 K, 100 kPa, x1 = 0.75	4.225 mPa·s
298.15 K, 101 kPa, x1 = 0.026	1.506 mPa·s
298.15 K, 101 kPa, x1 = 0.057	2.309 mPa·s
298.15 K, 101 kPa, x1 = 0.094	3.123 mPa·s
298.15 K, 101 kPa, x1 = 0.14	3.797 mPa·s
298.15 K, 101 kPa, x1 = 0.2	4.311 mPa·s
298.15 K, 101 kPa, x1 = 0.27	4.715 mPa·s
298.15 K, 101 kPa, x1 = 0.36	4.835 mPa·s
298.15 K, 101 kPa, x1 = 0.49	4.73 mPa·s
298.15 K, 101 kPa, x1 = 0.69	4.355 mPa·s
298.15 K, 101.33 kPa, x1 = 0.02	1.315 mPa·s and 1.33 mPa·s and 1.27 mPa·s
298.15 K, 101.33 kPa, x1 = 0.0206	1.337 mPa·s
298.15 K, 101.33 kPa, x1 = 0.026	1.52 mPa·s and 1.45 mPa·s
298.15 K, 101.33 kPa, x1 = 0.0397	1.85 mPa·s
298.15 K, 101.33 kPa, x1 = 0.04	1.89 mPa·s and 1.79 mPa·s
298.15 K, 101.33 kPa, x1 = 0.0447	2.015 mPa·s
298.15 K, 101.33 kPa, x1 = 0.057	2.35 mPa·s and 2.19 mPa·s
298.15 K, 101.33 kPa, x1 = 0.06	2.379 mPa·s and 2.42 mPa·s and 2.26 mPa·s
298.15 K, 101.33 kPa, x1 = 0.0745	2.78 mPa·s
298.15 K, 101.33 kPa, x1 = 0.0798	2.818 mPa·s
298.15 K, 101.33 kPa, x1 = 0.094	3.16 mPa·s and 2.97 mPa·s
298.15 K, 101.33 kPa, x1 = 0.1	3.26 mPa·s and 3.05 mPa·s
298.15 K, 101.33 kPa, x1 = 0.101	3.238 mPa·s
298.15 K, 101.33 kPa, x1 = 0.1121	3.55 mPa·s
298.15 K, 101.33 kPa, x1 = 0.1181	3.532 mPa·s
298.15 K, 101.33 kPa, x1 = 0.139	3.88 mPa·s and 3.66 mPa·s
298.15 K, 101.33 kPa, x1 = 0.1395	3.842 mPa·s
298.15 K, 101.33 kPa, x1 = 0.1574	4.288 mPa·s
298.15 K, 101.33 kPa, x1 = 0.1609	4.176 mPa·s
298.15 K, 101.33 kPa, x1 = 0.196	4.47 mPa·s and 4.41 mPa·s
298.15 K, 101.33 kPa, x1 = 0.198	4.441 mPa·s
298.15 K, 101.33 kPa, x1 = 0.2199	4.888 mPa·s
298.15 K, 101.33 kPa, x1 = 0.267	4.89 mPa·s and 4.86 mPa·s
298.15 K, 101.33 kPa, x1 = 0.3027	4.984 mPa·s
298.15 K, 101.33 kPa, x1 = 0.3035	5.292 mPa·s
298.15 K, 101.33 kPa, x1 = 0.362	4.99 mPa·s and 4.96 mPa·s
298.15 K, 101.33 kPa, x1 = 0.4285	5.484 mPa·s
298.15 K, 101.33 kPa, x1 = 0.4313	5.285 mPa·s
298.15 K, 101.33 kPa, x1 = 0.4315	5.316 mPa·s
298.15 K, 101.33 kPa, x1 = 0.493	4.86 mPa·s and 4.86 mPa·s
298.15 K, 101.33 kPa, x1 = 0.4939	5.199 mPa·s
298.15 K, 101.33 kPa, x1 = 0.5001	4.811 mPa·s
298.15 K, 101.33 kPa, x1 = 0.5965	4.912 mPa·s
298.15 K, 101.33 kPa, x1 = 0.686	4.48 mPa·s and 4.5 mPa·s
298.15 K, 101.33 kPa, x1 = 0.6961	4.646 mPa·s
298.15 K, 101.33 kPa, x1 = 0.6976	4.409 mPa·s
298.15 K, 101.33 kPa, x1 = 0.7888	4.392 mPa·s
298.15 K, 101.33 kPa, x1 = 0.7907	4.397 mPa·s
298.15 K, 101.33 kPa, x1 = 0.7931	4.254 mPa·s
298.15 K, 101.33 kPa, x1 = 0.822	4.27 mPa·s and 4.28 mPa·s
298.15 K, 101.33 kPa, x1 = 0.8932	4.308 mPa·s
298.15 K, 101.33 kPa, x1 = 0.9088	4.222 mPa·s
298.15 K, 101.33 kPa, x1 = 0.9422	4.288 mPa·s
298.15 K, 101.33 kPa, x1 = 0.96	4.37 mPa·s and 4.41 mPa·s
298.15 K, 101.33 kPa, x1 = 0.9734	4.408 mPa·s
303 K, 101 kPa, x2 = 0.3	3.527 mPa·s
303 K, 101 kPa, x2 = 0.5	3.881 mPa·s
303 K, 101 kPa, x2 = 0.65	3.975 mPa·s
303 K, 101 kPa, x2 = 0.91	2.475 mPa·s
303 K, 101 kPa, x2 = 0.95	1.772 mPa·s
303.2 K, 101.33 kPa, x2 = 0.05	3.236 mPa·s
303.2 K, 101.33 kPa, x2 = 0.1	3.214 mPa·s
303.2 K, 101.33 kPa, x2 = 0.15	3.247 mPa·s
303.2 K, 101.33 kPa, x2 = 0.2	3.309 mPa·s
303.2 K, 101.33 kPa, x2 = 0.3	3.455 mPa·s
303.2 K, 101.33 kPa, x2 = 0.4	3.599 mPa·s
303.2 K, 101.33 kPa, x2 = 0.5	3.743 mPa·s
303.2 K, 101.33 kPa, x2 = 0.6	3.877 mPa·s
303.2 K, 101.33 kPa, x2 = 0.7	3.836 mPa·s
303.2 K, 101.33 kPa, x2 = 0.8	3.541 mPa·s
303.2 K, 101.33 kPa, x2 = 0.85	3.182 mPa·s
303.2 K, 101.33 kPa, x2 = 0.9	2.604 mPa·s
303.2 K, 101.33 kPa, x2 = 0.95	1.738 mPa·s
304 K, 101 kPa, x2 = 0.75	3.646 mPa·s
305 K, 101 kPa, x2 = 0.1	3.026 mPa·s
308.15 K, 101 kPa, x1 = 0.05	1.541 mPa·s
308.15 K, 101 kPa, x1 = 0.1	2.188 mPa·s
308.15 K, 101 kPa, x1 = 0.2	2.951 mPa·s
308.15 K, 101 kPa, x1 = 0.3	3.186 mPa·s
308.15 K, 101 kPa, x1 = 0.4	3.219 mPa·s
308.15 K, 101 kPa, x1 = 0.5	3.116 mPa·s
308.15 K, 101 kPa, x1 = 0.6	2.973 mPa·s
308.15 K, 101 kPa, x1 = 0.7	2.837 mPa·s
308.15 K, 101 kPa, x1 = 0.8	2.701 mPa·s
308.15 K, 101 kPa, x1 = 0.9	2.635 mPa·s
308.15 K, 101 kPa, x1 = 0.95	2.606 mPa·s
313 K, 101 kPa, x2 = 0.1	2.146 mPa·s
313 K, 101 kPa, x2 = 0.3	2.33 mPa·s
313 K, 101 kPa, x2 = 0.5	2.586 mPa·s
313 K, 101 kPa, x2 = 0.65	2.674 mPa·s
313 K, 101 kPa, x2 = 0.75	2.587 mPa·s
313 K, 101 kPa, x2 = 0.91	1.747 mPa·s
313 K, 101 kPa, x2 = 0.95	1.287 mPa·s
313.15 K, 101 kPa, x1 = 0.05	1.311 mPa·s
313.15 K, 101 kPa, x1 = 0.07	1.54 mPa·s
313.15 K, 101 kPa, x1 = 0.1	1.84 mPa·s
313.15 K, 101 kPa, x1 = 0.2	2.453 mPa·s
313.15 K, 101 kPa, x1 = 0.3	2.615 mPa·s
313.15 K, 101 kPa, x1 = 0.4	2.618 mPa·s
313.15 K, 101 kPa, x1 = 0.5	2.534 mPa·s
323 K, 101 kPa, x2 = 0.1	1.471 mPa·s
323 K, 101 kPa, x2 = 0.3	1.623 mPa·s
323 K, 101 kPa, x2 = 0.5	1.809 mPa·s
323 K, 101 kPa, x2 = 0.65	1.889 mPa·s
323 K, 101 kPa, x2 = 0.75	1.85 mPa·s
323 K, 101 kPa, x2 = 0.91	1.306 mPa·s
323 K, 101 kPa, x2 = 0.95	0.9856 mPa·s
323.15 K, 100 kPa, x1 = 0.1	1.273 mPa·s
323.15 K, 100 kPa, x1 = 0.3	1.834 mPa·s
323.15 K, 100 kPa, x1 = 0.4	1.833 mPa·s
323.15 K, 100 kPa, x1 = 0.5	1.696 mPa·s
323.15 K, 100 kPa, x1 = 0.75	1.429 mPa·s
